Columns and labels:
P2X7 [1] = target: T1, P2X7 (Homo sapiens, UniProt Q99572); experiment: Pore permeation assay (YO PRO dye uptake, BzATP-induced); assay type: cell-based; parameters: expressed in transfected cells; host or cells: HEK293; conditions: HEK293 transfected with human P2X7 receptor, BzATP 10 uM, read-out: hP2X7 IC50
T1 sequence (Q99572 1-595): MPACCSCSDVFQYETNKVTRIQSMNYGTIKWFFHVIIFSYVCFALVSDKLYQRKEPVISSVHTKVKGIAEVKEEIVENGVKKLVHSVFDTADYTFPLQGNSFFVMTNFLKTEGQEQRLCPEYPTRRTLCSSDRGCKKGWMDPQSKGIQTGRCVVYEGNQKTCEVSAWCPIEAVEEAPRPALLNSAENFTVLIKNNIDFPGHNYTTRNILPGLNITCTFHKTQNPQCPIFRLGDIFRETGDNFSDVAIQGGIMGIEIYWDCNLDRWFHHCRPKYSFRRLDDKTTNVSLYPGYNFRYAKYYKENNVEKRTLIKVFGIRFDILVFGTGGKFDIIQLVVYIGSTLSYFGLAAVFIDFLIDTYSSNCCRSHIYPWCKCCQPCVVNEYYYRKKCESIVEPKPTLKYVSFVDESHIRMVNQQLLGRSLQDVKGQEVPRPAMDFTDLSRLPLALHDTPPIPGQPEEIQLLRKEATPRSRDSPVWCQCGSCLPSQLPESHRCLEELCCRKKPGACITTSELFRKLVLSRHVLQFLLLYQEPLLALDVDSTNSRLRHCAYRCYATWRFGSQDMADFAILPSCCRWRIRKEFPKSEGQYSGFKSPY
In short: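 HEK293 cells overexpressing human P2X7 were plated overnight, then placed in low-divalent HEPES buffer pH 7.4 (0.1 mM CaCl2, 125 mM NaCl). Compounds (10 points from 2.5 μM) were preincubated for 20 min at room temperature. YO-PRO (1 μM) was added with BzATP (10 μM), and dye uptake was read by fluorescence after 30 min.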

P2X7 [2] = target: T1, P2X7; experiment: IL-1β release assay in THP-1 cells (sandwich ELISA, BzATP-stimulated); assay type: cell-based; parameters: endogenous in cells; host or cells: THP-1 cells (PMA-differentiated, LPS-primed); conditions: LPS primed, 0.8 mM BzATP, mature IL-1β release, read-out: hTHP-1/IL-ib IC50

Row | Compound | IC50 (P2X7 [1]) | IC50 (P2X7 [2])
1 | O=C(NCC1(O)CCC(F)(F)CC1)c1cc(C2CCC2)n2cccc(Cl)c12 [Compound 12, 8-chloro-3-cyclobutyl-N-((4,4-difluoro-1-hydroxycyclohexyl)methyl) indolizine-1-carboxamide] | 10 to 100 nM | 101 to 500 nM
2 | COCCc1cc(C(=O)NCC2(O)CCCC3(CC3)C2)c2c(Cl)cccn12 (stereo not shown) [Compound 29, 8-chloro-N-((5-hydroxyspiro[2.5]octan-5-yl)methyl)-3-(2-methoxyethyl) indolizine-1-carboxamide] | 101 to 500 nM | 101 to 500 nM
3 | O=C(NCC1CCCCCC1)c1cc(CCO)n2cccc(Cl)c12 [Compound 6, 8-chloro-N-(cycloheptylmethyl)-3-(2-hydroxyethyl)indolizine-1-Carboxamide] | 10 to 100 nM | 10 to 100 nM
4 | (S)-8-chloro-N-((4,4-difluoro-1-hydroxycyclohexyl)methyl)-3-((tetrahydrofuran-3-yl)methyl)indolizine-1-carboxamide [Compound 52] | 10 to 100 nM | 10 to 100 nM
5 | O=C(NCC1CCC(F)(F)CC1)c1cc(C2CCC2)n2cccc(Cl)c12 [Compound 5, 8-chloro-3-cyclobutyl-N-((4,4-difluorocyclohexyl)methyl)indolizine-1-carboxamide] | 10 to 100 nM | 101 to 500 nM

Now from value to compound:

Row | IC50 (P2X7 [1]) | IC50 (P2X7 [2]) | Compound
6 | 10 to 100 nM | 10 to 100 nM | CC1CC(CNC(=O)c2cc(CCO)n3cccc(Cl)c23)CC(F)(F)C1 (stereo not shown) [Compound 36, 8-chloro-N-((3,3-difluoro-5-methylcyclohexyl)methyl)-3-(2-hydroxyethyl)indolizine-1-carboxamide]
7 | 10 to 100 nM | 10 to 100 nM | O=C(NCC1(O)CCC(F)(F)CC1)c1cc(C2CCOC2)n2cccc(Cl)c12 (stereo not shown) [Compound 61, 8-chloro-N-((4,4-difluoro-1-hydroxycyclohexyl)methyl)-3-(tetrahydrofuran-3-yl)indolizine-1-carboxamide]
8 | 10 to 100 nM | 10 to 100 nM | COCCc1cc(C(=O)NCC2CCC(F)(F)CC2)c2c(Cl)cccn12 [Compound 37, 8-chloro-N-((4,4-difluorocyclohexyl)methyl)-3-(2-methoxyethyl) indolizine-1-carboxamide]

— US9931324B2, “Indolizine derivatives and their use in neurodegenerative diseases” (Merck Patent GmbH, priority 2014, dated 2018)
